The values below come from patent US9878999B2, “Proteasome chymotrypsin-like inhibition using PI-1833 analogs” (H. Lee Moffitt Cancer Center and Research Institute, Inc., priority 2011, dated 2018).

The structures appear in SMILES notation. “And” between values parts separate entries of the source, which are not always exact repeats. Equal entries are not always repeated. Where two headings read alike, the source gives them in different places.

The target of this assay is CT-L activity of purified 20S proteasome (Homo sapiens, UniProt P20618+P28074). The experiment in a line: in vitro CT-L activity of purified 20S proteasome. The conditions noted are these: for fold improved CT-L activity: compared to the hit 1 (PI-1833). It counts as biochemical.
Where [1] appears, read: Table 3, read-out: IC50 (μM) CT-L.
The mark [2] stands for this setting: Table 10, read-out: IC50 (μM) CT-L.
Where [3] appears, read: Table 1, read-out: IC50 (μM) Chymotrypsin-like activity.
[4] abbreviates: Table 5, read-out: IC50 (μM) Chymotrypsin-like.
Setting [5] is: Table 5, @ 10 μM, read-out: Screening Results (% Inhibition @ 10 μM) Chymotrypsin-like.

What is called IC50 is the midpoint of a concentration-inhibition curve. In the case of `Cc1ccc(O[C@H](C)C(=O)N(Cc2nc(-c3cccnc3)no2)C(C)C)cc1` [16c, (R)—N-Isopropyl-N-((3-(pyridine-3-yl)-1,2,4-oxadiazol-5-yl)methyl)-2-(p-tolyloxy)propanamide], the “fold difference of CT-L potency between S- and R-enantiomer” value (16c vs 16b, 16e vs 16f) is recorded as 35 fold. The IC50 under setting [1] was 7.52 ± 2.13 µM. For the molecule `Cc1ccc(CNC(=O)N(Cc2nc(-c3ccccc3)no2)C(C)C)cc1` [SO2-024, 1-Isopropyl-3-(4-methylbenzyl)-1-((3-phenyl-1,2,4-oxadiazol-5-yl)methyl)urea], the IC50 runs as follows: under setting [2], more than 10 µM; (read-out: IC50, in vitro CT-L) more than 10 µM.

Take `CC(C)N(Cc1nc(-c2ccc(C(F)(F)F)cc2)no1)C(=O)COc1ccccc1` [11l, N-Isopropyl-2-phenoxy-N-((3-(4-(trifluoromethyl)phenyl)-1,2,4-oxadiazol-5-yl)methyl)acetamide]: the IC50 was found to be 15.1 ± 6.94 µM under setting [3] and 15 µM (read-out: IC50, in vitro CT-L). Further, the “fold loss of CT-L activity” value (compared to 1) was found to be 25 fold. Take `CC(C)N(Cc1nc(-c2cccnc2)no1)C(=O)COc1ccccc1` [drawing 161]: under setting [4], the IC50 turned out to be 3.12 ± 1.11 µM. On the same count and under the same terms, to `Cc1ccc(OCC(=O)N(C)Cc2nc(-c3ccc(C)cc3)no2)cc1` [drawing 122] belongs 29.9 ± 3.9 µM. By inhibition is commonly meant the drop in the measured response relative to a control, in per cent. Consider `CC(C)N(Cc1nc(-c2ccccc2)no1)C(=O)COc1ccc(-c2ccccc2)cc1` [11q, 2-(Biphenyl-4-yloxy)-N-isopropyl-N-((3-phenyl-1,2,4-oxadiazol-5-yl)methyl)acetamide], for which the IC50 under setting [3] was more than 10 µM. Besides, the inhibition at 10 µM (read-out: % inhibition of CT-L @ 10 μM, @ 10 μM) was less than 70%. `CC(C)N(Cc1nc(-c2ccccc2)no1)C(=O)CCc1ccc(C(F)(F)F)cc1` [SO2-027, N-Isopropyl-N-((3-phenyl-1,2,4-oxadiazol-5-yl)methyl)-3-(4-(trifluoromethyl)phenyl)propanamide]: the IC50 was determined as 15.7 µM under setting [2] and 15 µM (read-out: IC50, in vitro CT-L). Take `CC(C)N(Cc1nc(-c2ccc(Cl)cc2)no1)C(=O)COc1ccc(C(F)(F)F)cc1` [drawing 114]: the IC50 under setting [4] was 0.58 µM and 0.857 µM. Turning to `Cc1ccc(OCC(=O)N(Cc2nc(-c3ccc(C)cc3)no2)C2CC2)cc1` [12f, N-Cyclopropyl-N-((3-p-tolyl-1,2,4-oxadiazol-5-yl)methyl)-2-(p-tolyloxy)acetamide], the “Chymotrypsin-like activity, % @ 10 μM” value (Table 2, @ 10 μM) is listed as −8.36 ± 19.03%. Consider `CC(C)N(Cc1nc(-c2ccc(C(F)(F)F)cc2)no1)C(=O)COc1ccc(C(F)(F)F)cc1` [11c, N-Isopropyl-2-(4-(trifluoromethyl)phenoxy)-N-((3-(4-(trifluoromethyl)phenyl)-1,2,4-oxadiazol-5-yl)methyl)acetamide], for which the IC50 (read-out: IC50, in vitro CT-L) was 2.53 µM. Consider `Cc1ccc(OCC(=O)N(Cc2nc(-c3ccccc3)no2)C(C)C)cc1` [11m, N-isopropyl-N-((3-phenyl-1,2,4-oxadiazol-5-yl)methyl)-2-(p-tolyloxy)acetamide], for which the IC50 was 0.31 ± 0.08 µM under setting [3] and 0.3 to 0.5 µM (read-out: IC50, in vitro CT-L). `Cc1ccc(OCC(=O)N(Cc2nc(-c3ccc(C)cc3)no2)C2CC2)cc1` [drawing 172]: the inhibition at 10 µM under setting [5] is -8.36 ± 19%. In the case of `CC(C)N(Cc1nc(-c2ccccc2)no1)C(=O)COc1ccccc1` [11j, N-Isopropyl-2-phenoxy-N-((3-phenyl-1,2,4-oxadiazol-5-yl)methyl)acetamide], the “fold loss of CT-L activity” value (compared to 1) turned out to be 10 fold. The IC50 (read-out: IC50, in vitro CT-L) was 6.22 µM. Regarding `Cc1cccc(OCC(=O)N(Cc2nc(-c3ccccc3)no2)C(C)C)c1` [drawing 136], the inhibition at 10 µM under setting [5] was less than 70%. Take `CC(C)N(Cc1nc(-c2cccnc2)no1)C(=O)COc1ccccc1` [11ac, N-Isopropyl-2-phenoxy-N-((3-(pyridine-3-yl)-1,2,4-oxadiazol-5-yl)methyl)acetamide]: the IC50 (read-out: IC50, in vitro CT-L) stood at 3.12 ± 1.11 µM. With `Cc1ccc(-c2noc(CN(C(=O)COc3ccc(Cl)cc3)C(C)C)n2)cc1` [11e, 2-(4-Chlorophenoxy)-N-isopropyl-N-((3-p-tolyl-1,2,4-oxadiazol-5-yl)methyl)acetamide], the IC50 by setting is: under setting [3], 1.12 ± 0.33 µM; (read-out: IC50, in vitro CT-L) approximately 1 µM.

Turning to `CC(C)N(Cc1nc(-c2ccc(C(F)(F)F)cc2)no1)C(=O)COc1ccccc1` [drawing 126], the IC50 under setting [4] came out at 15.1 ± 6.94 µM. Same read-out and setting: to `CCCc1ccc(O[C@@H](C)C(=O)N(Cc2nc(-c3cccnc3)no2)C(C)C)cc1` (single isomer, unassigned) [drawing 176] belongs 0.075 µM; to `Cc1ccc(-c2noc(CN(C(=O)COc3ccccc3)C(C)C)n2)cc1` [drawing 124], 8.47 ± 0.59 µM. For `Cc1ccc(OCC(=O)N(Cc2nc(-c3ccc(C)cc3)no2)C(C)C)cc1` [PI-1833 (23)], the IC50 (Table 4, read-out: IC50 (μM) Chymotrypsin-like activity) was found to be 0.716 ± 0.27 µM. As to `Cc1ccc(OCC(=O)N(Cc2nc(-c3ccc(C)cc3)no2)CC(C)C)cc1` [drawing 187], the IC50 (Table 9, read-out: IC50 (μM) Chymotrypsin-like) came out at 2.37 ± 0.4 µM.

Consider `CC(C)Cc1ccc(OCC(=O)N(Cc2nc(-c3cccnc3)no2)C(C)C)cc1` [11ak, N-Isopropyl-2-(4-isobutylphenoxy)-N-((3-(pyridin-3-yl)-1,2,4-oxadiazol-5-yl)methyl)acetamide], for which the “CT-L inhibitory activity, in words” value was “failed to improve the CT-L activity”. Besides, the IC50 under setting [3] stood at 0.14 ± 0.052 µM. Turning to `Cc1ccc(OC(C)C(=O)N(Cc2nc(-c3ccccc3)no2)C(C)C)cc1` (stereo not drawn), the inhibition at 10 µM under setting [5] was 92.43 ± 0.82%. Under setting [4], the IC50 stood at 0.92 ± 0.21 µM.

Consider `Cc1ccc(OCC(=O)N(Cc2nc(-c3ccccn3)no2)C(C)C)cc1` [11w, N-Isopropyl-N-((3-(pyridin-2-yl)-1,2,4-oxadizaol-5-yl)methyl)-2-(p-tolyloxy)acetamide], for which the IC50 under setting [3] turned out to be 3.75 ± 1.47 µM and the IC50 (read-out: IC50, in vitro CT-L) came to 3.74 ± 1.47 µM. `Cc1ccc(-c2noc(CN(C(=O)COc3ccccc3)C(C)C)n2)cc1` [11k, N-Isopropyl-2-phenoxy-N-((3-p-tolyl-1,2,4-oxadiazol-5-yl)methyl)acetamide]: the IC50 by setting is: under setting [3], 8.47 ± 0.59 µM; (read-out: IC50, in vitro CT-L) 8.4 µM. Also, the “fold loss of CT-L activity” value (compared to 1) is recorded as 13 fold. Consider `CCCCc1ccc(OCC(=O)N(Cc2nc(-c3cccnc3)no2)C(C)C)cc1` [drawing 159], for which the IC50 under setting [4] was found to be 0.039 ± 0.011 µM. Still for that read-out and setting: to `CC(C)N(Cc1nc(-c2cccnc2)no1)C(=O)c1cc2ccccc2o1` [drawing 160] belongs 0.379 ± 0.063 µM.

With `Cc1ccc(NCC(=O)N(Cc2nc(-c3ccccc3)no2)C(C)C)cc1` [drawing 148], under setting [5], the inhibition at 10 µM is 81.5 ± 2.77%. In addition, the IC50 under setting [4] came to 5.67 ± 0.96 µM. Consider `Cc1ccc(OCC(=O)N(Cc2nc(-c3ccccn3)no2)C(C)C)cc1` [drawing 138], for which the IC50 under setting [4] is 3.75 ± 1.47 µM.

On to `CCCCCc1ccc(OCC(=O)N(Cc2nc(-c3cccnc3)no2)C(C)C)cc1` [11af], for which the IC50 under setting [3] amounted to 0.121 ± 0.04 µM. Besides, where the note is “compared to 11ad or 11ae”, the “fold loss of CT-L activity” value was 4 fold. Take `CCCCc1ccc(OCC(=O)N(Cc2nc(-c3cccnc3)no2)C(C)C)cc1` [11ae, 2-(4-Butylphenoxy)-N-isopropyl-N-((3-(pyridine-3-yl)-1,2,4-oxadiazol-5-yl)methyl)acetamide]: the “fold improved CT-L activity” value is listed as 20 fold. Moreover, the IC50 (read-out: IC50, in vitro CT-L) is 0.039 µM. On to `Cc1ccccc1OCC(=O)N(Cc1nc(-c2ccccc2)no1)C(C)C` [11p, N-Isopropyl-N-((3-phenyl-1,2,4-oxadiazol-5-yl)methyl)-2-(o-tolyloxy)acetamide], for which the “CT-L inhibitory activity, in words” value is recorded as “loss of in vitro activity”. Further, under setting [3], the half-inhibitory concentration (IC50) was more than 10 µM.

As for `Cc1ccc(OCC(=O)N(Cc2nc(-c3ccncc3)no2)C(C)C)cc1` [drawing 147], the inhibition at 10 µM under setting [5] was determined as 95.72 ± 0.88%. Besides, the IC50 under setting [4] was found to be 0.37 ± 0.046 µM. With `CCCCCCc1ccc(OCC(=O)N(Cc2nc(-c3cccnc3)no2)C(C)C)cc1` [drawing 165], under setting [4], the IC50 was 0.428 ± 0.038 µM. For the molecule `CCCc1ccc(O[C@@H](C)C(=O)N(Cc2nc(-c3cccnc3)no2)C(C)C)cc1` (single isomer, unassigned) [16f], under setting [1], the IC50 worked out at 2.18 ± 0.28 µM.

For the molecule `CC(C)c1ccc(OCC(=O)N(Cc2nc(-c3cccnc3)no2)C(C)C)cc1` [11ai, N-Isopropyl-2-(4-isopropylphenoxy)-N-((3-(pyridin-3-yl)-1,2,4-oxadiazol-5-yl)methyl)acetamide], the “CT-L inhibitory activity, in words” value was “failed to improve the CT-L activity”. The IC50 under setting [3] came out at 0.436 ± 0.073 µM. Consider `CC(C)N(Cc1nc(-c2ccccc2)no1)C(=O)CCc1ccc(C(F)(F)F)cc1` [compound 41], for which the “CT-L inhibitory activity, in words” value was “activity was diminished”.

For the molecule `CCCCc1ccc(OCC(=O)N(Cc2nc(-c3cnccn3)no2)C(C)C)cc1` [drawing 166], the IC50 under setting [4] worked out at 0.107 ± 0.013 µM. Regarding `Cc1ccc(OCC(=O)N(Cc2nc(-c3ccc(C(F)(F)F)cc3)no2)C(C)C)cc1` [11n, N-Isopropyl-2-(p-tolyloxy)-N-((3-(4-(trifluoromethyl)phenyl)-1,2,4-oxadiazol-5-yl)methyl)acetamide], the IC50 runs as follows: under setting [3], 0.97 ± 0.15 µM; (read-out: IC50, in vitro CT-L) approximately 1 µM. As to `CCc1ccc(OCC(=O)N(Cc2nc(-c3ccccc3)no2)C(C)C)cc1` [11aa, 2-(4-Ethylphenoxy)-N-isopropyl-N-((3-phenyl-1,2,4-oxadiazol-5-yl)methyl)acetamide], the “fold improved CT-L activity” value was 2 fold. Besides, under setting [3], the IC50 was found to be 0.267 ± 0.05 µM. The IC50 (read-out: IC50, in vitro CT-L) was 0.26 ± 0.05 µM. Turning to `CC(C)N(Cc1nc(-c2ccccc2)no1)C(=O)CCc1ccc(C(F)(F)F)cc1` [drawing 180], for the setting “Table 8, 20S CT-L proteasome activity, read-out: IC50 (μM) CT-L”, the IC50 is 15.7 µM.

On to `O=C(COc1ccc(C(F)(F)F)cc1)N(Cc1nc(-c2ccccc2)no1)C1CC1` [drawing 135], for which the “Screening Results (% Inhibition @ 10 μM) Chymotrypsin-like” value (Table 5, @ 10 μM) is 35.35% and 33.80%. In addition, the inhibition at 10 µM under setting [5] is 27.3%. Under setting [4], the IC50 came out at 6.37 µM.

Consider `Cc1ccc(O[C@@H](C)C(=O)N(Cc2nc(-c3cccnc3)no2)C(C)C)cc1` [drawing 162], for which, under setting [4], the IC50 was 0.214 ± 0.053 µM. Consider `CC(C)CC(NC(=O)c1ccc(OCC(=O)N(Cc2nc(-c3ccccc3)no2)C(C)C)cc1)C(=O)O` (stereo not drawn) [drawing 146], for which the “Screening Results (% Inhibition @ 10 μM) Chymotrypsin-like” value (Table 5, @ 10 μM) is reported as −174.75 ± 134.18 (n = 5) %.
